Literature values in patent US20060068010A1, “Method for improving the bioavailability of orally delivered therapeutics” (priority 2004, published 2006).
Where a name gives a salt, the structure may show the parent alone. Read-outs that look alike come from different tables or passages of the source.

Assays:
[1] = normalized to glycine = 0, most hydrophobic = 100
[2] = humans

SMILES	Hydrophobicity Index ([1]; At pH 2)	Hydrophobicity Index ([1]; At pH 7)	also measured
CN(CCOc1ccc(CC2SC(=O)NC2=O)cc1)c1ccccn1.O=C(O)/C=C\C(=O)O (racemic) [Rosiglitazone maleate, (±)-5-[[4-[2-(methyl-2-pyridinylamino)ethoxy]phenyl]methyl]-2,4-thiazolidinedione, (Z)-2-butenedioate (1:1)]	–	–	solubility dependence on pH (physiological pH range): decreases with increased pH
Cc1nccn1CC1CCc2c(c3ccccc3n2C)C1=O (racemic) [ondansetron, (+/−) 1,2,3,9-tetrahydro-9-methyl-3-[2-methyl-1H-imidazol-1-yl]-4H-carbazol-4-one, monohydrochloride, dehydrate]	–	–	solubility classification (base form, at pH greater than 5.0): low solubility
C[C@H](N)C(=O)O [Ala, Alanine]	47	41	–
CC(C)NCC(O)COc1ccc(CC(N)=O)cc1 (stereo not drawn) [Atenolol, benzeneacetamide, 4-[2′-hydroxy-3′-[(1-methylethyl)amino]propoxy]-]	–	–	fraction of an oral dose absorbed from the gastrointestinal tract [2]: about 50%
CC[C@H](C)[C@H](N)C(=O)O [Ile, isoleucine]	100	99	–
NCCCC[C@H](N)C(=O)O [Lys, lysine]	−37	−23	–
CSCC[C@H](N)C(=O)O [Met, methionine]	74	74	–
N[C@@H](Cc1c[nH]c2ccccc12)C(=O)O [Trp, tryptophan]	84	97	–
N[C@@H](Cc1ccc(O)cc1)C(=O)O [Tyr, tyrosine]	49	63	–
O=C(c1ccc(OCCN2CCCCC2)cc1)c1c(-c2ccc(O)cc2)sc2cc(O)ccc12 [raloxifene hydrochloride, 6-hydroxy-2-(4-hydroxyphenyl)-3-[4-(2-piperidinoethoxy)benzoyl]benzo[p]-thiophene]	–	–	solubility (hydrochloride-salt form): approximately 0.3 mg/mL; solubility classification (hydrochloride-salt form): very slightly soluble

Further lines, with some results ahead:

Hydrophobicity Index ([1]; At pH 2)	Hydrophobicity Index ([1]; At pH 7)	SMILES	also measured
−41	−28	NC(=O)C[C@H](N)C(=O)O [Asn, asparagine]	–
52	49	N[C@@H](CS)C(=O)O [Cys, cysteine]	–
−42	8	N[C@@H](Cc1c[nH]cn1)C(=O)O [His, histidine]	–
92	100	N[C@@H](Cc1ccccc1)C(=O)O [Phe, phenylalanine]	–
79	76	CC(C)[C@H](N)C(=O)O [Val, valine]	–
